Results published in article PMC8297402, “Trifluoromethyl-substituted 3,5-bis(arylidene)-4-piperidones as potential anti-hepatoma and anti-inflammation agents by inhibiting NF-кB activation” (Journal of Enzyme Inhibition and Medicinal Chemistry, 2021).
Where two headings read alike, the source gives them in different places.

Tests used:
[1] = tested on: Bax; assay: Western blot, Bax expression in HepG2 cells; type: cell-based, Human; conditions: HepG2, 1.0, 2.0, 4.0 μM, 24 h
Description: (§1) Primary antibodies (anti-Bax, Abcam, ab32503; anti-Bcl-2, Abcam, ab194583; anti-Cleaved caspase-3, Abcam, ab2302; anti-p65, Cell Signalling Technology, 8242S; anti-p-p65, Cell Signalling Technology, 3033S; anti-IκBα, Cell Signalling Technoligy, 4812S; anti-p-IκBα, Cell Signalling Technology, 2859S; anti-p38, Cell Signalling Technology, 8690S; anti-p-p38, Cell Signalling Technology, 4511S; anti-JNK, Cell Signalling Technology, 9258 T; anti-p-JNK, Santa Cruz Biotechnology, sc-6254; anti-GAPDH, Abcam, ab181602), and goat anti-rabbit IgG/HRP secondary antibodies (Cell Signalling Technology, 98164 s) were purchased and used according to the manufacturer’s instructions. HepG2 cell lines were incubated with different doses of BAP 16 (1.0, 2.0, 4.0 μM) for 24 h (Bax, Cleaved caspase-3, Bcl-2). RAW264.7 cells were incubated with BAP 16 for 1 h, then treated with LPS (1.0 μg/mL) for 30 min. Afterward cell extraction was performed and extracts were used for Western blot analysis. Next, 30 μg protein of cell lysates were separated by 12% SDS-PAGE gel. The proteins were then transferred onto nitrocellulose membranes. […] By using Quantity One software (Bio-Rad), western blotting results were quantified from more than three separate experiments.

[2] = tested on: HepG2 cells; assay: Apoptosis assay, Annexin V-FITC/PI flow cytometry; type: cell-based, Human; conditions: 1.0 μM, 24 h
Protocol: HepG2 cells were selected and plated at a density of approximately 2 × 10^5 cells/well in a 12-well plate. After treatment with BAP 16 (1.0, 2.0, and 4.0 μM) and DMSO for 24 h, cells were harvested, washed twice with pre-chilled PBS, and suspended in 1 × binding buffer at a concentration of 1 × 10^5 cells/mL. According to the manufacturer’s instruction, 100 μL of such medium was then mixed with 5 μL of Annexin V-FITC and 5 μL of propidium iodide (BD Biosciences, San Jose, CA, USA). The mixture was vortexed gently, then incubated in the dark at room temperature for 15 min. Apoptosis analysis was measured by flow cytometry (BD FACS Calibur).

[3] = tested on: p-p38; assay: Western blot, LPS-induced phosphorylation of p38 in RAW264.7 cells; type: cell-based, mouse; conditions: RAW264.7, 1.0, 2.0, 4.0 μM, LPS 1.0 μg/mL 30 min
Description: as §1

[4] = tested on: SMMC-7721; assay: Modified MTT cytotoxicity assay, SMMC-7721; type: cell-based, Human; conditions: for SI (selectivity index) SMMC-7721: quotient of IC50 for normal (LO2) and malignant (SMMC-7721) cells
Outline: (§2)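 HepG2 grown in DMEM, SMMC-7721 and LO2 in RPMI 1640, each with 10% FBS; ~8 × 10^3 cells/well. Compounds at 0.3125-10 μg/mL for 24 h at 37 °C, then MTT for 4 h. IC50 as mean of three replicates.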

[5] = tested on: A2780; assay: Modified MTT cytotoxicity assay, A2780
Protocol: (§4) To further verify the anti-tumour activity, one human non-small cell lung cancer cell line (A549), one human ovarian cancer cell line (A2780), and one human normal heptical cell line (HHL-5) were screened by BAPs (4–30) using a modified MTT assay (Supporting Information). DOX and curcumin were selected as positive controls.
(§5) The optical density (OD) value of each well was measured on a
(§6) multi-well plate reader (TECAN, Mӓnnedorf, Switzerland ) at 570 nm.
(§7) Every IC 50 value was the average of three replicates.
(§8) Doxorubicin (DOX) and Curcumin were used as positive controls.

[6] = tested on: C-Caspase-3; assay: Western blot, C-Caspase-3 expression in HepG2 cells; type: cell-based, Human; conditions: HepG2, 1.0, 2.0, 4.0 μM, 24 h
Description: as §1

[7] = tested on: IL-6; assay: ELISA of IL-6 release in LPS-stimulated RAW264.7 cells; type: cell-based, mouse; conditions: Mus musculus, RAW264.7, BAPs (5 μM) + LPS (1 μg/mL), RAW264.7, ELISA; read-out: Inhibition rate IL-6
Outline: (§3)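 RAW264.7 cells pretreated 2 h with compound at 5.0 μM (PDTC 30 μM as reference), then stimulated with LPS 1.0 μg/mL for a further 22 h. Secreted TNF-α and IL-6 in the culture media quantified by ELISA.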

[8] = tested on: TNF-α; assay: ELISA of TNF-α release in LPS-stimulated RAW264.7 cells; type: cell-based, mouse; conditions: Mus musculus
Outline: as §3

[9] = Modified MTT cytotoxicity assay, normal heptical cell line HHL-5; conditions: human, HHL-5 cells (normal hepatic cell line)
Protocol: as §4, §5, §6, §7, §8

[10] = tested on: p-p65; assay: Western blot, LPS-stimulated phosphorylation of p65 in RAW264.7 cells; type: cell-based, mouse; conditions: RAW264.7, 1.0, 2.0, 4.0 μM, LPS 1.0 μg/mL 30 min
Description: as §1

[11] = Modified MTT cytotoxicity assay, normal heptical cell line LO2; type: cell-based, human; conditions: human, LO2 cells (normal hepatic cell line), 24 h incubation
Outline: as §2

[12] = tested on: A549; assay: Modified MTT cytotoxicity assay, A549

O=C1C(=Cc2cccc(C(F)(F)F)c2)CN(S(=O)(=O)c2ccc(C(F)(F)F)cc2)CC1=Cc1cccc(C(F)(F)F)c1 [BAP 16]
Expression of pro-apoptotic protein Bax [1]: significantly increased
Apoptosis of HepG2 cells [2]: 31.7%
Expression level of p-p38 [3]: significantly decreased
IC50 ([4]; Homo sapiens, SMMC-7721, 24 h, MTT, 24 h incubation, three replicates): ~1200 nM
SI (selectivity index) SMMC-7721 [4]: ca. 14.8
SI (selectivity index) SMMC-7721 ([4]; listed as 16): 14.8
IC50 ([5]; Homo sapiens, A2780, read-out: Cytotoxicity IC50 A2780, MTT, ovarian cancer cell line): 270 ± 20 nM
SI (selectivity index) A2780 ([5]; quotient of IC50 for normal (HHL-5) and malignant (A2780) cells): 23.0
Expression of pro-apoptotic protein C-Caspase-3 [6]: significantly increased
inhibition at 5 µM [7]: ~79.2%
inhibition at 5 µM ([8]; RAW264.7, BAPs (5 μM) + LPS (1 μg/mL), RAW264.7, ELISA, read-out: Inhibition rate TNF-α): ~83.2%
inhibition at 5 µM ([8]; RAW264.7, average of TNF-α and IL-6, 5 μM + LPS, RAW264.7, read-out: Inhibition rates against IL-6 and TNF-α cytokine release, average): 81.2%
IC50 [9]: 6200 ± 400 nM
Expression level of p-p65 [10]: significantly decreased in a dose-dependent manner
IC50 at 24 h [11]: ~17800 nM
IC50 ([12]; Homo sapiens, A549, read-out: Cytotoxicity IC50 A549, MTT, non-small cell lung cancer cell line): 430 ± 80 nM
SI (selectivity index) A549 ([12]; quotient of IC50 for normal (HHL-5) and malignant (A549) cells): 14.4
